“And” between values parts separate entries of the source, which are not always exact repeats. Identical values can stand only once. “Also recorded” adds a separate entry of the source.
Key:
[1] = system: PC-3 PIP (PSMA+) and PC-3 flu (PSMA−) xenograft-bearing SCID mice; test: Ex vivo biodistribution in tumor-bearing mice
[2] = system: PC-3 PIP and PC-3 flu xenografts in SCID mouse; test: PET-CT imaging of [18F]6; format: in vivo; conditions: 94-120 min p.i., PC-3 PIP and PC-3 flu tumors
Procedure: Compound [^18F]6. In vivo PET-CT: A SCID mouse bearing subcutaneous PC-3 PIP and PC-3 flu xenografts was anesthetized using 3% isoflurane in oxygen for induction and 1.5% isoflurane in oxygen at 0.8 L/min flow for maintenance and positioned prone on the gantry of a GE eXplore Vista small animal PET scanner (GE Healthcare, Milwaukee, Wis.). The mouse was injected intravenously with 7.4 MBq (200 μCi) of [^18F]6 followed by image acquisition using the following protocol: The images were acquired as a pseudodynamic scan, i.e., a sequence of successive whole-body images acquired in three bed positions for a total of 90 min. The dwell time at each position was 5 minutes, such that a given bed position (or mouse organ) was revisited every 15 min. An energy window of 250-700 keV was used. Images were reconstructed using the FORE/2D-OSEM method (2 iterations, 16 subsets) and included corrections for radioactive decay, scanner dead time and scattered radiation.

[3] = system: PC-3 PIP and PC-3 flu xenografts in SCID mouse; test: SPECT-CT imaging of [125I]3 in PCa tumor models; format: in vivo; conditions: 4 h p.i., PC-3 PIP and PC-3 flu tumors
Procedure: At 4 and 6 h p.i. the mouse was anesthetized with isoflurane and maintained under 1% isoflurane in oxygen. The mouse was positioned on the X-SPECT (Gamma Medica, Northridge, Calif.) gantry and was scanned using two low energy, high-resolution pinhole collimators (Gamma Medica) rotating through 360° in 6° increments for 45 seconds per increment. All gamma images were reconstructed using Lunagem software (Gamma Medica, Northridge, Calif.) Immediately following SPECT acquisition, the mice were then scanned by CT (X-SPECT) over a 4.6 cm field-of-view using a 600 μA, 50 kV beam. […] Data were reconstructed using the Ordered Subsets-Expectation Maximization (OS-EM) algorithm.

Structure (SMILES): O=C(O)CCC(NC(=O)NC(CCCCNC(=O)c1ccc([18F])cc1)C(=O)O)C(=O)O (centres unmarked) [[^18F]6, 2-{3-[1-carboxy-5-(4-[^18F]fluoro-benzoylamino)-pentyl]-ureido}-pentanedioic acid]
- PC-3 PIP tumor uptake ([1]; 30 min p.i.): 8.58±3.09 % ID/g and 8.6 ± 3.1 % ID/g
- PC-3 flu tumor uptake ([1]; 30 min p.i.): 0.8 ± 0.3 % ID/g
- PIP tumor:bladder ratio ([1]; 30 min p.i.): (1)
- PIP tumor:blood ratio ([1]; 30 min p.i.): (3)
- PIP tumor:heart ratio ([1]; 30 min p.i.): (11)
- PIP tumor:kidney ratio ([1]; 30 min p.i.): (0.1)
- PIP tumor:large intestine ratio ([1]; 30 min p.i.): (7)
- PIP tumor:liver ratio ([1]; 30 min p.i.): (1)
- PIP tumor:lung ratio ([1]; 30 min p.i.): (5)
- PIP tumor:muscle ratio ([1]; 30 min p.i.): (4)
- PIP tumor:pancreas ratio ([1]; 30 min p.i.): (11)
- PIP tumor:small intestine ratio ([1]; 30 min p.i.): (5)
- PIP tumor:spleen ratio ([1]; 30 min p.i.): (0.7)
- PIP tumor:stomach ratio ([1]; 30 min p.i.): (11)
- PIP:flu ratio ([1]; 30 min p.i.): 11
- bladder uptake ([1]; 30 min p.i.): 6.8 ± 3.5 % ID/g
- blood uptake ([1]; 30 min p.i.): 2.5 ± 1.7 % ID/g
- heart uptake ([1]; 30 min p.i.): 0.8 ± 0.1 % ID/g
- kidney uptake ([1]; 30 min p.i.): 72.05±3.19 % ID/g and 72 ± 3 % ID/g
- large intestine uptake ([1]; 30 min p.i.): 1.2 ± 0.8 % ID/g
- liver uptake ([1]; 30 min p.i.): 8.7 ± 1.8 % ID/g
- lung uptake ([1]; 30 min p.i.): 1.7 ± 0.3 % ID/g
- muscle uptake ([1]; 30 min p.i.): 2.4 ± 3.1 % ID/g
- pancreas uptake ([1]; 30 min p.i.): 0.8 ± 0.1 % ID/g
- small intestine uptake ([1]; 30 min p.i.): 1.7 ± 0.7 % ID/g
- spleen uptake ([1]; 30 min p.i.): 12.67±0.36 % ID/g and 12.7 ± 0.4 % ID/g
- stomach uptake ([1]; 30 min p.i.): 0.8 ± 0.1 % ID/g
- PC-3 PIP tumor uptake ([1]; 60 min p.i.): 6.4 ± 0.9 % ID/g
- PC-3 flu tumor uptake ([1]; 60 min p.i.): 0.3 ± 0.05 % ID/g
- PIP tumor:bladder ratio ([1]; 60 min p.i.): (0.4)
- PIP tumor:blood ratio ([1]; 60 min p.i.): (9)
- PIP tumor:heart ratio ([1]; 60 min p.i.): (35)
- PIP tumor:kidney ratio ([1]; 60 min p.i.): (0.1)
- PIP tumor:large intestine ratio ([1]; 60 min p.i.): (13)
- PIP tumor:liver ratio ([1]; 60 min p.i.): (1)
- PIP tumor:lung ratio ([1]; 60 min p.i.): (13)
- PIP tumor:muscle ratio ([1]; 60 min p.i.): (13)
- PIP tumor:pancreas ratio ([1]; 60 min p.i.): (21)
- PIP tumor:small intestine ratio ([1]; 60 min p.i.): (11)
- PIP tumor:spleen ratio ([1]; 60 min p.i.): (1)
- PIP tumor:stomach ratio ([1]; 60 min p.i.): (26)
- PIP:flu ratio ([1]; 60 min p.i.): 21
- bladder uptake ([1]; 60 min p.i.): 17 ± 21 % ID/g
- blood uptake ([1]; 60 min p.i.): 0.7 ± 0.5 % ID/g
- heart uptake ([1]; 60 min p.i.): 0.2 ± 0.02 % ID/g
- kidney uptake ([1]; 60 min p.i.): 48 ± 5 % ID/g
- large intestine uptake ([1]; 60 min p.i.): 0.5 ± 0.1 % ID/g
- liver uptake ([1]; 60 min p.i.): 5.8 ± 0.6 % ID/g
- lung uptake ([1]; 60 min p.i.): 0.5 ± 0.1 % ID/g
- muscle uptake ([1]; 60 min p.i.): 0.5 ± 0.7 % ID/g
- pancreas uptake ([1]; 60 min p.i.): 0.3 ± 0.1 % ID/g
- small intestine uptake ([1]; 60 min p.i.): 0.6 ± 0.2 % ID/g
- spleen uptake ([1]; 60 min p.i.): 7.2 ± 1.6 % ID/g
- stomach uptake ([1]; 60 min p.i.): 0.25 ± 0.1 % ID/g
- PC-3 PIP tumor uptake ([1]; 2 h p.i.): 3.7 ± 1.2 % ID/g
- PC-3 flu tumor uptake ([1]; 2 h p.i.): 0.25 ± 0.1 % ID/g
- PIP tumor:bladder ratio ([1]; 2 h p.i.): (0.3)
- PIP tumor:blood ratio ([1]; 2 h p.i.): (9)
- PIP tumor:heart ratio ([1]; 2 h p.i.): (25)
- PIP tumor:kidney ratio ([1]; 2 h p.i.): (0.1)
- PIP tumor:large intestine ratio ([1]; 2 h p.i.): (19)
- PIP tumor:liver ratio ([1]; 2 h p.i.): (0.3)
- PIP tumor:lung ratio ([1]; 2 h p.i.): (4)
- PIP tumor:muscle ratio ([1]; 2 h p.i.): (19)
- PIP tumor:pancreas ratio ([1]; 2 h p.i.): (25)
- PIP tumor:small intestine ratio ([1]; 2 h p.i.): (12)
- PIP tumor:spleen ratio ([1]; 2 h p.i.): (1)
- PIP tumor:stomach ratio ([1]; 2 h p.i.): (13)
- PIP:flu ratio ([1]; 2 h p.i.): 15
- bladder uptake ([1]; 2 h p.i.): 11 ± 8 % ID/g
- blood uptake ([1]; 2 h p.i.): 0.4 ± 0.2 % ID/g
- heart uptake ([1]; 2 h p.i.): 0.15 ± 0.05 % ID/g
- kidney uptake ([1]; 2 h p.i.): 29 ± 12 % ID/g
- large intestine uptake ([1]; 2 h p.i.): 0.2 ± 0.1 % ID/g
- liver uptake ([1]; 2 h p.i.): 11.7 ± 7.0 % ID/g
- lung uptake ([1]; 2 h p.i.): 1.0 ± 0.9 % ID/g
- muscle uptake ([1]; 2 h p.i.): 0.2 ± 0.1 % ID/g
- pancreas uptake ([1]; 2 h p.i.): 0.15 ± 0.03 % ID/g
- small intestine uptake ([1]; 2 h p.i.): 0.3 ± 0.2 % ID/g
- spleen uptake ([1]; 2 h p.i.): 4.4 ± 1.2 % ID/g
- stomach uptake ([1]; 2 h p.i.): 0.3 ± 0.1 % ID/g
- PC-3 PIP tumor uptake ([1]; 5 h p.i.): 3.5 ± 2.3 % ID/g
- PC-3 flu tumor uptake ([1]; 5 h p.i.): 0.1 ± 0.1 % ID/g
- PIP tumor:bladder ratio ([1]; 5 h p.i.): (0.7)
- PIP tumor:blood ratio ([1]; 5 h p.i.): (117)
- PIP tumor:heart ratio ([1]; 5 h p.i.): (117)
- PIP tumor:kidney ratio ([1]; 5 h p.i.): (0.3)
- PIP tumor:large intestine ratio ([1]; 5 h p.i.): (6)
- PIP tumor:liver ratio ([1]; 5 h p.i.): (3.5)
- PIP tumor:lung ratio ([1]; 5 h p.i.): (35)
- PIP tumor:muscle ratio ([1]; 5 h p.i.): (35)
- PIP tumor:pancreas ratio ([1]; 5 h p.i.): (70)
- PIP tumor:small intestine ratio ([1]; 5 h p.i.): (35)
- PIP tumor:spleen ratio ([1]; 5 h p.i.): (3.5)
- PIP tumor:stomach ratio ([1]; 5 h p.i.): (88)
- PIP:flu ratio ([1]; 5 h p.i.): 35
- bladder uptake ([1]; 5 h p.i.): 5.2 ± 8.9 % ID/g
- blood uptake ([1]; 5 h p.i.): 0.03 ± 0.00 % ID/g
- heart uptake ([1]; 5 h p.i.): 0.03 ± 0.01 % ID/g
- kidney uptake ([1]; 5 h p.i.): 14 ± 9 % ID/g
- large intestine uptake ([1]; 5 h p.i.): 0.6 ± 0.6 % ID/g
- liver uptake ([1]; 5 h p.i.): 1.0 ± 0.6 % ID/g
- lung uptake ([1]; 5 h p.i.): 0.1 ± 0.1 % ID/g
- muscle uptake ([1]; 5 h p.i.): 0.1 ± 0.1 % ID/g
- pancreas uptake ([1]; 5 h p.i.): 0.05 ± 0.03 % ID/g
- small intestine uptake ([1]; 5 h p.i.): 0.1 ± 0.04 % ID/g
- spleen uptake ([1]; 5 h p.i.): 1.0 ± 0.6 % ID/g
- stomach uptake ([1]; 5 h p.i.): 0.04 ± 0.02 % ID/g
- uptake pattern in PET-CT [2]: easily observed within PIP tumor, none within flu tumor, high renal uptake and a modest degree of liver uptake; also recorded: uptake within the PSMA+ PIP tumor only

Structure (SMILES): O=C(O)CCC(NC(=O)NC(CCCCNC(=O)c1ccc([125I])cc1)C(=O)O)C(=O)O (centres unmarked) [[^125I]3, 2-{3-[1-carboxy-5-(4-[^125I]iodo-benzoylamino)-pentyl]-ureido}-pentanedioic acid]
- radiopharmaceutical uptake in SPECT-CT image [3]: intense uptake in the PC-3 PIP and absence of uptake in the PC-3 flu tumor; also recorded: uptake within the PSMA+ PIP tumor only

Reference: patent US12070513B2, “PSMA-binding agents and uses thereof” (The Johns Hopkins University, priority 2008, dated 2024)
